Experimental data published in US20230091225A1, “Bifunctional chimeric heterocyclic compounds for targeted degradation of androgen receptors and use thereof” (HINOVA PHARMACEUTICALS INC., priority 2019, published 2023).
Like-named read-outs stand apart in the source and are kept apart here.

Biological target: T1, androgen receptor (AR) (Homo sapiens, UniProt P10275)
T1 sequence (P10275 1-920): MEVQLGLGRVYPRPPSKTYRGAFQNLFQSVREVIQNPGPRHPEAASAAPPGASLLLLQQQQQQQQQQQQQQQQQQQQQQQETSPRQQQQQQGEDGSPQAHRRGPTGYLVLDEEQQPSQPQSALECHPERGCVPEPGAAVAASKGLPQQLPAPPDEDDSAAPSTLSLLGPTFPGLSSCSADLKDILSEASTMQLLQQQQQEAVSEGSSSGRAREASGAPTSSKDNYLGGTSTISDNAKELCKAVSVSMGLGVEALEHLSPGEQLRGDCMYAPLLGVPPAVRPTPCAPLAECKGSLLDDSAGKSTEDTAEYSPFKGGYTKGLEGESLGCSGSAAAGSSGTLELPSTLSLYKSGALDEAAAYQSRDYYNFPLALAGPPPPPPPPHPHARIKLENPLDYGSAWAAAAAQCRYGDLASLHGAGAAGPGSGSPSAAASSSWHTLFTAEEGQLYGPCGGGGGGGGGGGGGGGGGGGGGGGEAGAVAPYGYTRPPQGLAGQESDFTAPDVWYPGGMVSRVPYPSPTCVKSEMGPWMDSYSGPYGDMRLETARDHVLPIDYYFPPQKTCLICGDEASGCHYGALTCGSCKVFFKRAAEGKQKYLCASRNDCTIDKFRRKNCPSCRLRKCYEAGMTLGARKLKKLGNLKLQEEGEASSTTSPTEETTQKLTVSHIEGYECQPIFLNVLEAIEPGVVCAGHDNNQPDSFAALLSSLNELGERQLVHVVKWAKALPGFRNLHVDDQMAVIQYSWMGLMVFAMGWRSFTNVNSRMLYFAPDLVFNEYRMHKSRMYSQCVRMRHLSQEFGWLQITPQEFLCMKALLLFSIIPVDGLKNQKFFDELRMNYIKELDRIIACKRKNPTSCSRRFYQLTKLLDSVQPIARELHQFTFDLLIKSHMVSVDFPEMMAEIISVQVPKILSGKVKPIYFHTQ
Assay: Degradation of androgen receptor (AR) protein in VCaP cells by ELISA
Assay type: cell-based
Details: for Dmax: VCaP

[1] = AR degradation, VCaP cells, 16 h, ELISA, Table 3-1, read-out: DC50
[2] = AR degradation, VCaP cells, 16 h, ELISA, Table 3-1, read-out: Dmax (%)
[3] = AR degradation, VCaP cells, 16 h, ELISA, Table 3-1

DC50 [1] [µM]	Dmax [2] [%]	SMILES	Dmax [%]	also measured
–	–	N#Cc1ccc(O[C@H]2CC[C@H](NC(=O)c3cnc(N4CCC(CN5CCC6(CC5)CN(c5ccc7c(c5)C(=O)N(C5CCC(=O)NC5=O)C7=O)C6)CC4)nn3)CC2)cc1C(F)(F)F (stereo partly drawn) [Compound 420, N-((1r,4r)-4-(4-cyano-3-trifluoromethyl-phenoxy)cyclohexyl)-3-(4-((2-(2-(2,6-dioxopiperidin-3-yl)-1,3-dioxoisoindolin-5-yl)-2,7-diazaspiro[3.5]nonane-7-yl)methyl)piperidin-1-yl)-1,2,4-triazine-6-formamide]	–	DC50 (AR degradation, VCaP cells, 16 h, ELISA, Table 3-2, read-out: DC50): < 0.01 µM; Dmax (AR degradation, VCaP cells, 16 h, ELISA, Table 3-2, read-out: Dmax (%)): > 80%
–	–	N#Cc1ccc(O[C@H]2CC[C@H](NC(=O)c3ccc(N4CCC(CN5CC6(C5)CN(c5cc7c(cc5F)C(=O)N(C5CCC(=O)NC5=O)C7=O)C6)CC4)nn3)CC2)cc1Cl (stereo partly drawn) [Compound 122, N-((1r,4r)-4-(3-chloro-4-cyanophenoxy)cyclohexyl)-6-(4-((6-(2-(2,6-dioxopiperidin-3-yl)-6-fluoro-1,3-dioxoisoindolin-5-yl)-2,6-diazaspiro[3.3]heptan-2-yl)methyl)piperidin-1-yl)pyridazine-3-amide]	> 80	DC50: < 0.01 µM
0.1 to 0.3	60 to 80	N#Cc1ccc(O[C@H]2CC[C@H](NC(=O)c3ncnn3[C@H]3CC[C@H](CN4CCC5(CC4)CN(c4ccc6c(c4)C(=O)N(C4CCC(=O)NC4=O)C6=O)C5)CC3)CC2)cc1Cl (stereo partly drawn) [Compound 86, N-((1r,4R)-4-(3-chloro-4-cyanophenoxy)cyclohexyl)-1-((1r,4R)-4-((2-(2-(2,6-dioxopiperidin-3-yl)-1,3-dioxoisoindolin-5-yl)-2,7-diazaspiro[3.5]nonan-7-yl)methyl)cyclohexyl)-1H-1,2,4-triazole-5-formamide]	–	–
> 0.3	–	CC1(C)[C@H](Oc2ccc(C#N)c(Cl)c2)C(C)(C)[C@H]1N1Cc2nc(C#CC3CCC(N4CCC5(CN(c6ccc7c(c6)C(=O)N(C6CCC(=O)NC6=O)C7=O)C5)C4)CC3)ccc2C1=O (stereo partly drawn) [Compound 373]	–	–
–	–	N#Cc1ccc(O[C@H]2CC[C@H](NC(=O)c3nnc(N4CCC(CN5CCC6(CC5)CN(c5ccc7c(c5)C(=O)N(C5CCC(=O)NC5=O)C7=O)C6)CC4)s3)CC2)cc1Cl (stereo partly drawn) [Compound 243]	> 80	DC50: < 0.01 µM
–	–	N#Cc1ccc(OC2CCC(NC(=O)c3ccc(N4CCN(CC5[C@H]6CN(c7cc8c(cc7F)C(=O)N(C7CCC(=O)NC7=O)C8=O)C[C@@H]56)CC4)nn3)CC2)cc1C(F)(F)F (stereo partly drawn) [Compound 95]	–	Dmax (%): +++ (key: ++++: >80%; +++: 80%-60%; ++: 60%-40%; +: <40%); DC50 (read-out: DC50): 0.01 to 0.1 µM
–	–	N#Cc1ccc(O[C@H]2CC[C@H](NC(=O)c3ccc(N4CCC(CN5CCC6(CC5)CN(c5ccc7c(c5)C(=O)N(C5CCC(=O)NC5=O)C7=O)C6)CC4)nn3)CC2)cc1Br (stereo partly drawn) [Compound 274, N-((1r,4r)-4-(3-bromo-4-cyanophenoxy)cyclohexyl)-6-(4-((2-(2-(2-,2,6-dioxopiperidin-3-yl)-1,3-dioxoisoindolin-5-yl)-2,7-diazaspiro[3.5]nonan-7-yl)methyl)piperidin-1-yl)pyridazine-3-carboxamide]	> 80	DC50: < 0.01 µM
< 0.01	> 80	CC1(C)[C@H](Oc2ccc(C#N)c(Cl)c2)C(C)(C)[C@H]1N1Cc2nc(C#CC3CCC(N4CCC5(CN(c6cc7c(cc6F)C(=O)N(C6CCC(=O)NC6=O)C7=O)C5)C4)CC3)ccc2C1=O (stereo partly drawn) [Compound 374]	–	–
< 0.01	> 80	N#Cc1ccc(O[C@H]2CC[C@H](NC(=O)c3ccc(N4CC5(CN(CC6CCN(c7cc8c(cc7F)C(=O)N(C7CCC(=O)NC7=O)C8=O)CC6)C5)C4)nn3)CC2)cc1Cl (stereo partly drawn) [Compound 124]	–	–
–	–	N#Cc1ccc(OC2CCC(NC(=O)c3cnc(N4CCN(CC5[C@H]6CN(c7cc8c(cc7F)C(=O)N(C7CCC(=O)NC7=O)C8=O)C[C@@H]56)CC4)cn3)CC2)cc1C(F)(F)F (stereo partly drawn) [Compound 94]	–	Dmax (%): +++ (key: ++++: >80%; +++: 80%-60%; ++: 60%-40%; +: <40%); DC50 (read-out: DC50): 0.01 to 0.1 µM
–	–	N#Cc1ccc(OC2CCC(NC(=O)c3ccc(N4CCC5(CC4)CN(CC4CCN(c6cc7c(cc6F)C(=O)N(C6CCC(=O)NC6=O)C7=O)CC4)C5)nn3)CC2)cc1C(F)(F)F (stereo not drawn) [Compound 285, N-((1r,4r) 4-(4-cyano-3-(trifluoromethyl)phenoxy)cyclohexyl)-6-(2-((1-(2,6-dioxopiperidin-3-yl)-6-fluoro-1,3-dioxoisoindolin-5-yl)piperidine-4-yl)methyl)-2,7-diazaspiro [3.5] nonan-7-yl)pyridazine-3-formamide]	–	Dmax (%): ++++ (key: A: >80%; B: 79%-50%; C: 49%-25%; D: <25%); DC50 (read-out: DC50): < 0.01 µM
0.1 to 0.3	40 to 60	N#Cc1ccc(O[C@H]2CC[C@H](NC(=O)c3ccc(N4CC5CC4CN5C[C@H]4[C@@H]5CN(c6cc7c(cc6F)C(=O)N(C6CCC(=O)NC6=O)C7=O)C[C@@H]54)nn3)CC2)cc1Cl (stereo partly drawn) [Compound 237]	–	–
< 0.01	> 80	N#Cc1ccc(O[C@H]2CC[C@H](NC(=O)c3ccc(N4CCC5(CCN(CC6CCN(c7ccc8c(c7)C(=O)N(C7CCC(=O)NC7=O)C8=O)CC6)CC5)CC4)nn3)CC2)cc1Cl (stereo partly drawn) [Compound 262, N-((1r,4r)-4-(3-chloro-4-cyanophenoxy)cyclohexyl)-6-(9-((1-(2-(2,6-dioxopiperidin-3-yl)-1,3-dioxoisoindolin-5-yl)piperidine-4-yl)methyl)-3,9-diazaspiro[5.5]undecan-3-yl)pyridazine-3-formamide]	–	–
< 0.01	> 80	N#Cc1ccc(O[C@H]2CC[C@H](NC(=O)c3cn([C@H]4CC[C@H](CN5CCC6(CC5)CN(c5ccc7c(c5)C(=O)N(C5CCC(=O)NC5=O)C7=O)C6)CC4)nn3)CC2)cc1Cl (stereo partly drawn) [Compound 114, N-((1r,4R)-4-(3-chloro-4-cyanophenoxy)cyclohexyl)-1-((1r,4R)-4-((2-(2-(2,6-dioxopiperidin-3-yl)-1,3-dioxoisoindolin-5-yl)-2,7-diazaspiro[3.5]nonan-7-yl)methyl)cyclohexyl)-1H-1,2,3-triazole-4-carboxamide]	–	–
0.01 to 0.1	60 to 80	CC1(C)[C@H](Oc2ccc(C#N)c(Cl)c2)C(C)(C)[C@H]1N1Cc2nc(C#CC3CCC(N4CC5(CN(c6cc7c(cc6F)C(=O)N(C6CCC(=O)NC6=O)C7=O)C5)C4)CC3)ccc2C1=O (stereo partly drawn) [Compound 341]	–	–

SMILES	DC50 [1] [µM]	Dmax [2] [%]	Dmax [%]	also measured
CC1(C)[C@H](Oc2ccc(C#N)c(Cl)c2)C(C)(C)[C@H]1N1Cc2nc(C#CC3CCC(N4CCC5(CCN(c6cc7c(cc6F)C(=O)N(C6CCC(=O)NC6=O)C7=O)C5)C4)CC3)ccc2C1=O (stereo partly drawn) [Compound 367, 2-Chloro-4-((1r,3r)-3-(2-((4-(7-(2-(2,6-dioxopiperidin-3-yl)-6-fluoro-1,3-dioxoisoindolin-5-yl)-2,7-diazaspiro[4.4]nonan-2-yl)cyclohexyl)ethynyl)-5-oxo-5,7-dihydro-6H-pyrrolo[3,4-b]pyridin-6-yl)-2,2,4,4-tetramethylcyclobutoxy) benzonitrile]	0.1 to 0.3	–	–	Dmax (%) [3]: ++ (60%-40%)
N#Cc1ccc(O[C@H]2CC[C@H](NC(=O)c3ccc(N4CC5(CCN(C6CCN(c7cc8c(cc7F)C(=O)N(C7CCC(=O)NC7=O)C8=O)CC6)C5)C4)nn3)CC2)cc1Cl (stereo partly drawn) [Compound 81, N-((1r,4r)-4-(3-chloro-4-cyanophenoxy)cyclohexyl)-6-(6-(1-(2-(2,6-dioxopiperidin-3-yl)-6-fluoro-1,3-dioxoisoindolin-5-yl)piperidine-4-yl)-2,6-diazaspiro[3.4]octan-2-yl)pyridazine-3-formamide]	< 0.01	–	> 80	–
N#Cc1ccc(O[C@H]2CC[C@H](NC(=O)c3cnn([C@H]4CC[C@H](CN5CCC6(CC5)CN(c5ccc7c(c5)C(=O)N(C5CCC(=O)NC5=O)C7=O)C6)CC4)c3)CC2)cc1Cl (stereo partly drawn) [Compound 245]	0.01 to 0.1	–	60 to 80	–
CC1(C)[C@H](Oc2ccc(C#N)c(Cl)c2)C(C)(C)[C@H]1N1Cc2nc(C#CC3CCC(N4CC5(CCN(c6cc7c(cc6F)C(=O)N(C6CCC(=O)NC6=O)C7=O)CC5)C4)CC3)ccc2C1=O (stereo partly drawn) [Compound 379, 2-Chloro-4-((1r,3r)-3-(2-((4-(7-(2-(2,6-dioxopiperidin-3-yl)-6-fluoro-1,3-dioxoisoindolin-5-yl)-2,7-diazaspiro[3.5]nonan-2-yl)cyclohexyl)ethynyl)-5-oxo-5,7-dihydro-pyrrolo[3,4-b]pyridin-6-yl)-2,2,4,4-tetramethylcyclobutoxy) benzonitrile]	0.01 to 0.1	–	–	Dmax (%) [3]: ++++ (>80%)
N#Cc1ccc(O[C@H]2CC[C@H](NC(=O)c3nnc(N4CCC(CN5CCC6(CC5)CN(c5cc7c(cc5F)C(=O)N(C5CCC(=O)NC5=O)C7=O)C6)CC4)s3)CC2)cc1Cl (stereo partly drawn) [Compound 244]	< 0.01	–	> 80	–
